According to patent US20160331754A1, “THERAPIES FOR TREATING CANCERS” (GILEAD SCIENCES, INC., priority 2014, published 2016):
“And” between values parts separate entries of the source, which are not always exact repeats. Equal values may be shown once.

Columns and labels:
WIL2-S [1] = test: ADCC LDH release assay, purified NK cells against WIL2-S target cells; assay type: cell-based, human; settings: for Percentage of maximum ADCC, rituximab: rituximab 10 μg/mL; for Percentage of maximum ADCC, obinutuzumab: obinutuzumab 10 μg/mL
[2] = test system: NK-cell expression of CD107a and CD16; test: Antibody potency and NK-cell expression of CD107a and CD16; assay type: cell-based; settings: data not shown
Ri-1 DLBCL cells = test: Cell death assay (Annexin V/7AAD) in Ri-1 DLBCL cells; assay type: cell-based; settings: 3 days
Description: Further, whole blood (WB) autologous B-cell depletion and cell-death induction assays were conducted as described in Mossner et al., Blood 115:4393-402, 2010. For cell death assay: Ri-1 DLBCL cells were seeded at 15,000 cells/well in 96-well plates. Cells were preincubated with Compound B or DMSO for 1 hour before the addition of antibody. Plates were incubated at 37° C. in a humidified CO2 chamber for 3 days. Cells were washed once with PBS and treated with Accutase for 15 minutes before being stained with Guava Nexin® reagent and analyzed on the Guava EasyCyte flow cytometer (Merck Millipore).
After 3 days of incubation, cell death was assessed by Annexin V/7AAD staining.

WIL2-S [3] = test: ADCC LDH release assay, purified NK cells against WIL2-S target cells; assay type: cell-based, human; settings: for Percentage of maximum obinutuzumab-mediated ADCC: Obinutuzumab 10 μg/mL, E:T=10:1, 4 h; for Percentage of maximum ADCC, rituximab: rituximab 10 μg/mL, FcγRIIIa 158F/F
Description: PI3K isoforms may play a role in immune effector cells and FcγR signaling. The effects of Compound B on the immune effector functions of obinutuzumab and rituximab in lymphoma cell lines were examined. To characterize the antibody-dependent cellular cytotoxicity (ADCC), PBMCs were isolated from healthy individuals with FcγRIIIa genotypes of 158F/F, 158F/V, or 158V/V (Leuko Paks from AllCells, Alameda, Calif.) using Ficoll density gradient centrifugation. NK cells were enriched using a negative-selection immunomagnetic enrichment kit ([…] Technologies, Vancouver, British Columbia, Canada). Enriched NK cells and target cells WIL2-S, S-DHL-4, or Z-138 were separately pre-incubated for 1 hour with or without Compound B (1/2 dilutions from about 1 mM to about 1 nM). In the last 20 minutes of the pre-incubation, target cells were opsonized with or without rituximab or obinutuzumab (at 10 μg/mL, the saturating concentration with maximal ADCC) at indicated effector-target ratios (E:T). Palivizumab was used as an isotype control. NK and target cells were combined and incubated for 4 hours at 37° C. in 5% CO2. To determine ADCC, […] dehydrogenase (LDH) was measured using a cytotoxicity detection kit (Roche Applied Science, Indianapolis, Ind.). In some assays, antigen-independent cellular cytotoxicity (AICC) which represented spontaneous release by NK cell killing of target cells without antibodies were used as control.
LDH release assays were conducted at 4 hours using WIL2-S line as target and purified NK cells (E:T=10:1). The results (n=9) were normalized as % of maximum ADCC.

[4] = Compound B 125 nM, FcγRIIIa 158F/F
[5] = Compound B 125 nM, FcγRIIIa 158F/V
[6] = Compound B 125 nM, FcγRIIIa 158V/V
[7] = Compound B 250 nM, FcγRIIIa 158F/F
[8] = Compound B 250 nM, FcγRIIIa 158F/V
[9] = Compound B 250 nM, FcγRIIIa 158V/V
[10] = Compound B 500 nM, FcγRIIIa 158F/F
[11] = Compound B 500 nM, FcγRIIIa 158F/V
[12] = Compound B 500 nM, FcγRIIIa 158V/V
[13] = Compound B 1000 nM, FcγRIIIa 158F/F, n=2
[14] = Compound B 1000 nM, FcγRIIIa 158F/V, n=2

## CC[C@H](Nc1ncnc2[nH]cnc12)c1nc2cccc(F)c2c(=O)n1-c1ccccc1 [Compound B, (S)-2-(1-((9H-purin-6-yl)amino)propyl)-5-fluoro-3-phenylquinazolin-4(3H)-one]
WIL2-S [1]; Compound B 62.5 nM, FcγRIIIa 158F/F
  Percentage of maximum ADCC, rituximab: 88% and 108%
WIL2-S [1]; Compound B 62.5 nM, FcγRIIIa 158F/V
  Percentage of maximum ADCC, rituximab: 101% and 107%
WIL2-S [1]; Compound B 62.5 nM, FcγRIIIa 158V/V
  Percentage of maximum ADCC, rituximab: 96% and 99%
WIL2-S [1]; [4]
  Percentage of maximum ADCC, obinutuzumab: 87% and 110%
  Percentage of maximum ADCC, rituximab: 87% and 108%
WIL2-S [1]; [5]
  Percentage of maximum ADCC, obinutuzumab: 111% and 105%
  Percentage of maximum ADCC, rituximab: 105% and 102%
WIL2-S [1]; [6]
  Percentage of maximum ADCC, obinutuzumab: 94% and 84%
  Percentage of maximum ADCC, rituximab: 95% and 98%
WIL2-S [1]; [7]
  Percentage of maximum ADCC, obinutuzumab: 91% and 109%
  Percentage of maximum ADCC, rituximab: 87% and 109%
WIL2-S [1]; [8]
  Percentage of maximum ADCC, obinutuzumab: 106% and 102%
  Percentage of maximum ADCC, rituximab: 98% and 101%
WIL2-S [1]; [9]
  Percentage of maximum ADCC, obinutuzumab: 99% and 89%
  Percentage of maximum ADCC, rituximab: 95% and 94%
WIL2-S [1]; [10]
  Percentage of maximum ADCC, obinutuzumab: 83% and 104%
  Percentage of maximum ADCC, rituximab: 84% and 105%
WIL2-S [1]; [11]
  Percentage of maximum ADCC, obinutuzumab: 106% and 94%
  Percentage of maximum ADCC, rituximab: 95% and 99%
WIL2-S [1]; [12]
  Percentage of maximum ADCC, obinutuzumab: 92% and 79%
  Percentage of maximum ADCC, rituximab: 91% and 96%
WIL2-S [1]; [13]
  Percentage of maximum ADCC, obinutuzumab: 79% and 103%
  Percentage of maximum ADCC, rituximab: 80% and 100%
WIL2-S [1]; [14]
  Percentage of maximum ADCC, obinutuzumab: 105% and 93%
  Percentage of maximum ADCC, rituximab: 95% and 88%
WIL2-S [1]; Compound B 1000 nM, FcγRIIIa 158V/V, n=2
  Percentage of maximum ADCC, rituximab: 87% and 84%
WIL2-S [1]; WIL2-S, E:T=10:1, 4 h, n=9
  effect on obinutuzumab-mediated ADCC: did not affect
WIL2-S [1]; varying E:T ratios, antibody 10 μg/mL, n=3
  effect on NK-mediated ADCC: did not affect
[2]; Compound B 256 nM with obinutuzumab or rituximab 0.01-1000 ng/mL
  reduction of the potency of both anti-CD20 antibodies: 0 to 15%
[2]; in 2 of 3 samples
  NK-cell degranulation, surface expression of CD107a: inhibited NK-cell degranulation
Ri-1 DLBCL cells; 100 nM Compound B alone
  Percentage of total Annexin V+ cells: 28% and 27%
Ri-1 DLBCL cells; 300 nM Compound B alone
  Percentage of total Annexin V+ cells: 31% and 33%
Ri-1 DLBCL cells; 600 nM Compound B alone
  Percentage of total Annexin V+ cells: 35% and 37%
WIL2-S [3]; Compound B 0.98 nM
  Percentage of maximum obinutuzumab-mediated ADCC: 99% and 91% and 109% and 94% and 96% and 103% and 104% and 101%
WIL2-S [3]; Compound B 1.95 nM
  Percentage of maximum obinutuzumab-mediated ADCC: 100% and 89% and 125% and 104% and 106% and 112% and 107%
WIL2-S [3]; Compound B 3.91 nM
  Percentage of maximum obinutuzumab-mediated ADCC: 91% and 84% and 102% and 113% and 105% and 108% and 110% and 103%
WIL2-S [3]; Compound B 7.81 nM
  Percentage of maximum obinutuzumab-mediated ADCC: 90% and 89% and 98% and 113% and 105% and 109% and 107% and 94%
WIL2-S [3]; Compound B 15.63 nM
  Percentage of maximum ADCC, rituximab: 92% and 108%
WIL2-S [3]; Compound B 31.25 nM
  Percentage of maximum obinutuzumab-mediated ADCC: 82% and 85% and 102% and 107% and 96% and 95%
  Percentage of maximum ADCC, rituximab: 86% and 109%
WIL2-S [3]; Compound B 62.5 nM
  Percentage of maximum obinutuzumab-mediated ADCC: 78% and 88% and 103% and 95% and 108% and 112% and 98%
WIL2-S [3]; Compound B 125 nM
  Percentage of maximum obinutuzumab-mediated ADCC: 84% and 87% and 104% and 97% and 111% and 110% and 105% and 94%
WIL2-S [3]; Compound B 250 nM
  Percentage of maximum obinutuzumab-mediated ADCC: 89% and 91% and 99% and 97% and 95% and 106% and 109% and 102%
WIL2-S [3]; Compound B 500 nM
  Percentage of maximum obinutuzumab-mediated ADCC: 79% and 83% and 94% and 92% and 96% and 106% and 104%
WIL2-S [3]; Compound B 1000 nM, obinutuzumab 10 μg/mL, FcγRIIIa 158V/V, n=2
  Percentage of maximum ADCC, obinutuzumab: 83% and 82%
WIL2-S [3]; Homo sapiens, 250 nM, FcγRIIIa 158V/V genotype, read-out: inhibition of obinutuzumab-mediated ADCC
  inhibition at […]: < 10%
WIL2-S [3]; n=2 per genotype, antibody 10 μg/mL
  effect on obinutuzumab-mediated ADCC in FcγRIIIa 158F/F or 158F/V genotypes: did not affect
